IC50 data for three compounds are collected here from US7501410B2, “Methods of inhibiting BTK and SYK protein kinases” (Roche Palo Alto LLC, priority 2006, dated 2009).

Where “and” joins values, the source holds several entries; their conditions need not be identical. Identical values can stand only once.

This experiment addresses T1, Spleen Tyrosine Kinase (SYK) aa 360-635 (Homo sapiens, UniProt P43405).
T1 construct: truncated construct of Spleen Tyrosine Kinase aa 360-635; made in house
Description: Determination of IC50 of Spleen Tyrosine Kinase (SYK) inhibition, 33P kinase assay. The experiment is classed as biochemical. Conditions: recombinant human SYK360-635, 20 μM ATP; read-out: IC50 (μM) SYK Assay.

Consider `Cc1cc(Nc2nn(C(C)C)c(=O)c3cc(N4CCOCC4)ccc23)n[nH]1` [Example F-1, 2-Isopropyl-4-(5-methyl-1H-pyrazol-3-ylamino)-7-morpholino-2H-phthalazin-1-one], for which the half-inhibitory concentration (IC50) is 0.565 µM and 2.31 µM and 0.526 µM.

As to `Cc1cc(Nc2nn(C(C)C)c(=O)c3cc(N4CCN(C)CC4)ccc23)[nH]n1` [Example F-5, 2-Isopropyl-7-(4-methyl-piperazin-1-yl)-4-(5-methyl-2H-pyrazol-3-ylamino)-2H-phthalazin-1-one], the IC50 was 0.37 µM and 0.7 µM and 0.536 µM.

With `Cc1cc(Nc2nn(C(C)C)c(=O)c3cc(OCCN(C)C)ccc23)n[nH]1` [Example ZD-5, 7-(2-Dimethylamino-ethoxy)-2-isopropyl-4-(5-methyl-1H-pyrazol-3-ylamino)-2H-phthalazin-1-one], the IC50 came to 1.86 µM.
